The pIC50 is −log10 of the IC50, conventionally taken in molar units. A lower pIC50 goes with a high IC50.

Molecules are shown by their SMILES. pIC50: −log10 of the molar value.

In patent publication US5958973A, “Polyhydroxy benzoic acid derivatives and their use as neuraminidase inhibitors” (Gilead Sciences, Inc., priority 1995, dated 1999) one finds IC50 data, which are given here for two molecules.

For this assay, the target named is neuraminidase. The assay is classed as biochemical. The conditions noted are these: in vitro enzyme inhibition; class symbols. From the text:
Compositions of the invention are screened for inhibitory activity against neuraminidase by any of the conventional techniques for evaluating enzyme activity. […] Useful in vitro screens have been described in detail and will not be elaborated here.

As to `CCc1cc(C(=O)O)cc(NC(=N)N)c1NC(C)=O` [Compound 213], the pIC50 is 4.00 to 4.12. `N=C(N)Nc1cc(C(=O)O)ccc1NC(=O)C(F)(F)F` [Compound 208] gave a pIC50 of 4.12 to 4.70.
